Literature values, collected in US20220000855A1, “AN AURORA A KINASE INHIBITOR FOR USE IN THE TREATMENT OF NEUROBLASTOMA” (Eli Lilly and Company, priority 2018, published 2022).

Conditions: background statement

Structure (SMILES)	neutropenia and other toxic effects associated with use
Cc1cc(Nc2cc(N3CCN(C)CC3)nc(Sc3ccc(NC(=O)C4CC4)cc3)n2)[nH]n1 [tozasertib]	unacceptably high levels of neutropenia and other toxic effects
COc1cc(Nc2ncc3c(n2)-c2ccc(Cl)cc2C(c2c(F)cccc2OC)=NC3)ccc1C(=O)O [alisertib]	unacceptably high levels of neutropenia and other toxic effects
